{
  "source": "paper PMC3298755",
  "about": "(Nature Chemical Biology, 2011)",
  "key": {"COX-2 in stimulated DRGs [1]": {"tested_on": "COX-2 in stimulated DRGs", "type": "cell-based, mouse", "conditions": "read-out: IC50 for inhibition of 2-AG oxidation in DRGs"}, "COX-2 in stimulated DRGs [2]": {"tested_on": "COX-2 in stimulated DRGs", "type": "cell-based, mouse", "conditions": "read-out: IC50 for inhibition of AEA oxidation in DRGs"}, "COX-2 in stimulated DRGs [3]": {"tested_on": "COX-2 in stimulated DRGs", "type": "cell-based, mouse"}, "stimulated DRGs": {"tested_on": "stimulated DRGs", "assay": "Substrate levels", "type": "cell-based, mouse"}, "FAAH": {"tested_on": "FAAH", "conditions": "read-out: IC50, FAAH inhibition; in vitro; ref [29]; cited from earlier work"}, "mCOX-2": {"biological_target": "T1, mCOX-2 (Mus musculus, UniProt Q05769)", "T1 sequence (Q05769 18-604)": "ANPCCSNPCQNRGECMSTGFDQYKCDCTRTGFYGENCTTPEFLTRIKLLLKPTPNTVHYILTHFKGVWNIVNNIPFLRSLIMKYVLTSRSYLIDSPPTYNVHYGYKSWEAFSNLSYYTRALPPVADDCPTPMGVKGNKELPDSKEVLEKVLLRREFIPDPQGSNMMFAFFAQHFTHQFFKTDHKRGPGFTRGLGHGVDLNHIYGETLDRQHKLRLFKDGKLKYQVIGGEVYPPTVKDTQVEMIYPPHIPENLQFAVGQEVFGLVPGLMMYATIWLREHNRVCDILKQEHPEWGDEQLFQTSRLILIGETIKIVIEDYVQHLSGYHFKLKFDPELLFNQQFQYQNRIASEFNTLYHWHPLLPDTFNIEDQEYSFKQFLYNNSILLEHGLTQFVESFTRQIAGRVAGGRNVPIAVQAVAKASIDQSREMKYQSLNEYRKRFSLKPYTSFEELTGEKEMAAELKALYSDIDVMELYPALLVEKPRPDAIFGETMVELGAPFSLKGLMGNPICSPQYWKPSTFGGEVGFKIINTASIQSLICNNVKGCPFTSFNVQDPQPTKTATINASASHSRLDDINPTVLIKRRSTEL", "assay": "Inhibition of COX-2 oxygenation of AA, PG formation by LC-MS-MS", "type": "biochemical"}},
  "note": "Like-named read-outs stand apart in the source and are kept apart here.",
  "data": [
    {"molecule": "C[C@@H](C(=O)O)c1ccc(-c2ccccc2)c(F)c1", "note": "[(R)-flurbiprofen]", "values": [
      {"measurement": "IC50", "setting": "COX-2 in stimulated DRGs [1]", "value": "5.8 ± 2.9", "unit": "µM"},
      {"measurement": "IC50", "setting": "COX-2 in stimulated DRGs [2]", "value": "6 ± 2.7", "unit": "µM"},
      {"measurement": "Inhibition of the synthesis of PGs in DRGs", "setting": "COX-2 in stimulated DRGs [3]", "value": "did not inhibit"},
      {"measurement": "Amount of 2-AG in cell extracts", "setting": "stimulated DRGs", "value": "increased"},
      {"measurement": "Amount of AA in cell extracts", "setting": "stimulated DRGs", "value": "did not increase"},
      {"measurement": "Amount of AEA in cell extracts", "setting": "stimulated DRGs", "value": "increased"},
      {"measurement": "IC50", "setting": "FAAH", "value": "> 1000", "unit": "µM"}
    ]},
    {"molecule": "CC(C)Cc1ccc([C@@H](C)C(=O)O)cc1", "note": "[(R)-ibuprofen]", "values": [
      {"measurement": "Amount of 2-AG in cell extracts", "setting": "stimulated DRGs", "value": "increased"},
      {"measurement": "Amount of AA in cell extracts", "setting": "stimulated DRGs", "value": "did not increase"},
      {"measurement": "Amount of AEA in cell extracts", "setting": "stimulated DRGs", "value": "increased"}
    ]},
    {"molecule": "COc1ccc2cc([C@@H](C)C(=O)O)ccc2c1", "note": "[(R)-naproxen]", "values": [
      {"measurement": "Inhibition of AA oxidation by COX-2", "setting": "mCOX-2; at either 5 or 50 μM substrate concentrations", "value": "did not inhibit"},
      {"measurement": "Inhibition of the synthesis of PGs in DRGs", "setting": "COX-2 in stimulated DRGs [3]; stimulated DRGs, at concentrations that inhibited PG-G and PG-EA synthesis", "value": "did not inhibit"},
      {"measurement": "Amount of 2-AG in cell extracts", "setting": "stimulated DRGs", "value": "increased"},
      {"measurement": "Amount of AA in cell extracts", "setting": "stimulated DRGs", "value": "did not increase"},
      {"measurement": "Amount of AEA in cell extracts", "setting": "stimulated DRGs", "value": "increased"}
    ]},
    {"molecule": "Cc1ccc(Nc2c(F)cccc2Cl)c(CC(=O)O)c1", "note": "[Lumiracoxib]", "values": [
      {"measurement": "IC50, inhibition of COX-2 oxygenation of AA (result in words)", "setting": "mCOX-2; 50 μM AA, 15 min pre-incubation, 30 s reaction, LC-MS-MS", "value": "no inhib."}
    ]}
  ]
}
